System: 439559-082-T-J2-PDC spheroids viability
Assay: Anticancer human tumor 439559-082-T-J2-PDC patient-derived colon adenocarcinoma cell line growth inhibition [GQUAD]
Conditions: for IC50: curve of first compound; for viability, T/C: stronger effect = lower value
Source text: DNA G-quadruplex Stabilizer Agents in Combinations in Complex Spheroids
A high-throughput screen of multi-cell type tumor spheroids was designed to identify active combinations of DNA G-quadruplex stabilizer agents and targeted small molecules. Complex spheroids include a stromal component modeled by human endothelial cells (HUVEC) and fibroblasts modeled by human mesenchymal stem cells (MSCs). The concentration ranges selected for each drug and investigational agent were based upon clinically achievable concentrations if the clinical Cmax of the agent was known.
Compounds. The drugs and investigational agents: pidnarulex (CX-5461; NSC782164), APTO-253 (NSC789042), BRACO-19 (NSC847499), peposertib (NSC802822), ceralasertib (NSC780249), elimusertib (NSC800525), camonsertib (NSC841442), AZD-1390 (NSC803789), olaparib (NSC753686), talazoparib (NSC767125), ART-558 (NSC835418), sotorasib (NSC818433), MRTX-1133 (NSC836407), SN-38 (NSC673596), topotecan (NSC609699), etoposide (NSC141540), doxorubicin (NSC123127), gemcitabine (NSC613327), 5-fluorouracil (NSC19893), paclitaxel (NSC125973), vemurafenib (NSC761431), panobinostat (NSC761190), R-306465 (JNJ-16241199; NSC773264), adavosertib (NSC754352), TP-3654 (NSC805149), carboplatin (NSC241240), KSQ-4279 (NSC840948), and staurosporine (NSC755774) were obtained from the National Cancer Institute (NCI) Developmental Therapeutics Program Chemical Repository (34). The FDA-approved anticancer drug set is available from the NCI Developmental Therapeutics Program. […] The stock solutions were prepared in dimethyl sulfoxide (DMSO, Sigma-Aldrich, St. Louis, MO, cat. D2650) at 800-fold the tested concentration and stored at -70 degrees C prior to their use. All drugs and investigational agents were tested over a range starting from a high concentration at or near the clinical Cmax and decreasing in half-log increments. If the clinical Cmax for an agent had not been determined, the highest concentration tested was 10 microM.
2.3 Cell Culture. All cells were maintained in an incubator at 37 degrees C and 5% CO2 with 95% humidity. The PDC lines were cultured according to standard operating procedures established by the NCI PDMR. All PDCs were thawed and cultured in Matrigel-coated flasks prepared with a working solution of 1X Ham's F-12 nutrient mix, without supplementation (Invitrogen, cat. 11765054), 100 U/mL penicillin-streptomycin (Invitrogen, cat. 15140122), and 2.5% Matrigel (Corning Inc., cat. 354248) for the first three passages. The 857933-349-R-J2-PDC line was cultured in 6C/Colon 1B media, which includes advanced DMEM/F-12 (Thermo Fisher Scientific, cat. 12634028), 10 mM HEPES (Thermo Fisher Scientific, cat. 15630080), 1X GlutaMAX supplement (Thermo Fisher Scientific, cat. 35050061), 0.1 mg/mL primocin (InvivoGen, cat. ant-pm-2), 10% defined fetal bovine serum, heat inactivated (HyClone Laboratories Inc., cat. SH30070.03HI), 50% L-WRN conditioned media (ATCC, cat. CRL-3276), 1.25 mM N-Acetyl-L-cysteine (Sigma-Aldrich, cat. A9165), 10 mM nicotinamide (Sigma-Aldrich, cat. N0636), 1X B-27 supplement (Thermo Fisher Scientific, cat. 17504044), 1X N-2 supplement (Thermo Fisher Scientific, cat. 17502048), 10 microM Y-27632 dihydrochloride (Tocris Bioscience, cat. 1254), and 50 ng/mL human EGF recombinant protein (Thermo Fisher Scientific, cat. PHG0311). The 485176-168-R4-J1-PDC line was cultured in Panc media, which includes all 6C/Colon 1B media components plus 100 ng/mL human FGF-10 (Thermo Fisher Scientific, cat. 100-26), 500 nM SB-431542 (Selleckchem, cat. S1067), and gastrin (Tocris, cat. 3006).
[…]

[1] = second compound 0.0316 µM, first compound 0.0316 µM
[2] = second compound 0.0316 µM, first compound 0.1 µM
[3] = second compound 0.0316 µM, first compound 0.316 µM
[4] = second compound 0.0316 µM, first compound 1 µM
[5] = second compound 0.0316 µM, first compound 3.16 µM
[6] = second compound 0.0316 µM, first compound 10 µM
[7] = second compound 0.1 µM, first compound 0.0316 µM
[8] = second compound 0.1 µM, first compound 0.1 µM
[9] = second compound 0.1 µM, first compound 0.316 µM
[10] = second compound 0.1 µM, first compound 1 µM
[11] = second compound 0.1 µM, first compound 3.16 µM
[12] = second compound 0.1 µM, first compound 10 µM
[13] = second compound 0.316 µM, first compound 0.0316 µM
[14] = second compound 0.316 µM, first compound 0.1 µM
[15] = second compound 0.316 µM, first compound 0.316 µM
[16] = second compound 0.316 µM, first compound 1 µM
[17] = second compound 0.316 µM, first compound 3.16 µM
[18] = second compound 0.316 µM, first compound 10 µM
[19] = second compound 1 µM, first compound 0.0316 µM
[20] = second compound 1 µM, first compound 0.1 µM
[21] = second compound 1 µM, first compound 0.316 µM
[22] = second compound 1 µM, first compound 1 µM
[23] = second compound 1 µM, first compound 3.16 µM
[24] = second compound 1 µM, first compound 10 µM
[25] = second compound 3.16 µM, first compound 0.0316 µM
[26] = second compound 3.16 µM, first compound 0.1 µM
[27] = second compound 3.16 µM, first compound 0.316 µM
[28] = second compound 3.16 µM, first compound 1 µM
[29] = second compound 3.16 µM, first compound 3.16 µM
[30] = second compound 3.16 µM, first compound 10 µM
[31] = second compound 10 µM, first compound 0.0316 µM
[32] = second compound 10 µM, first compound 0.1 µM
[33] = second compound 10 µM, first compound 0.316 µM
[34] = second compound 10 µM, first compound 1 µM
[35] = second compound 10 µM, first compound 3.16 µM
[36] = second compound 10 µM, first compound 10 µM
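Note: spheroids exposed to the agents for 7 days before readout.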
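Throughout, for viability, T/C: percent of luminescence signal in DMSO vehicle wells taken as 100% viability.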

SMILES: C#Cc1c(F)ccc2cc(O)cc(-c3ncc4c(N5CC6CCC(C5)N6)nc(OCC56CCCN5CC(F)C6)nc4c3F)c12 (centres undefined) + Cc1[nH]c2ccc(F)cc2c1-c1nc2c3cccnc3c3ncccc3c2[nH]1
- IC50 (second compound 0.0316 µM): 1.54 µM
- IC50 (second compound 0.1 µM): 1.62 µM
- IC50 (second compound 0.316 µM): 1.53 µM
- IC50 (second compound 1 µM): 1.61 µM
- IC50 (second compound 3.16 µM): 0.709 µM
- IC50 (second compound 10 µM): 1.01 µM
- viability, T/C [1]: 97%
- viability, T/C [2]: 104%
- viability, T/C [3]: 87.6%
- viability, T/C [4]: 71.9%
- viability, T/C [5]: 13.7%
- viability, T/C [6]: 9.66%
- viability, T/C [7]: 112%
- viability, T/C [8]: 96.4%
- viability, T/C [9]: 109%
- viability, T/C [10]: 79.5%
- viability, T/C [11]: 9.72%
- viability, T/C [12]: 7.59%
- viability, T/C [13]: 105%
- viability, T/C [14]: 97.9%
- viability, T/C [15]: 90.8%
- viability, T/C [16]: 74.2%
- viability, T/C [17]: 7.82%
- viability, T/C [18]: 7.52%
- viability, T/C [19]: 91.5%
- viability, T/C [20]: 91.9%
- viability, T/C [21]: 101%
- viability, T/C [22]: 79.9%
- viability, T/C [23]: 8.22%
- viability, T/C [24]: 5.9%
- viability, T/C [25]: 72.2%
- viability, T/C [26]: 72.5%
- viability, T/C [27]: 70.8%
- viability, T/C [28]: 41.1%
- viability, T/C [29]: 5.26%
- viability, T/C [30]: 2.89%
- viability, T/C [31]: 85.2%
- viability, T/C [32]: 69.3%
- viability, T/C [33]: 93%
- viability, T/C [34]: 50.5%
- viability, T/C [35]: 2.77%
- viability, T/C [36]: 3.31%

SMILES: CC(C)n1c(=O)n(C)c2cnc3cc(F)c(-c4ccc(OCCCN5CCCCC5)nc4)cc3c21 + Cc1cnc(CNC(=O)c2c(=O)c3ccc(N4CCCN(C)CC4)nc3n3c2sc2ccccc23)cn1
- IC50 (second compound 0.0316 µM): > 10 µM
- IC50 (second compound 0.1 µM): > 10 µM
- IC50 (second compound 0.316 µM): > 10 µM
- IC50 (second compound 1 µM): > 10 µM
- IC50 (second compound 3.16 µM): > 10 µM
- IC50 (second compound 10 µM): 5.99 µM
- viability, T/C [1]: 91.2%
- viability, T/C [2]: 77.3%
- viability, T/C [3]: 88.8%
- viability, T/C [4]: 90.8%
- viability, T/C [5]: 94.2%
- viability, T/C [6]: 82.6%
- viability, T/C [7]: 77.9%
- viability, T/C [8]: 76.1%
- viability, T/C [9]: 60.8%
- viability, T/C [10]: 68.2%
- viability, T/C [11]: 71%
- viability, T/C [12]: 62.9%
- viability, T/C [13]: 73.3%
- viability, T/C [14]: 67.6%
- viability, T/C [15]: 59.1%
- viability, T/C [16]: 66.3%
- viability, T/C [17]: 71.6%
- viability, T/C [18]: 53%
- viability, T/C [19]: 71.8%
- viability, T/C [20]: 55.7%
- viability, T/C [21]: 66.7%
- viability, T/C [22]: 62.4%
- viability, T/C [23]: 62.9%
- viability, T/C [24]: 42.7%
- viability, T/C [25]: 56.9%
- viability, T/C [26]: 60.6%
- viability, T/C [27]: 67.6%
- viability, T/C [28]: 60.8%
- viability, T/C [29]: 58.1%
- viability, T/C [30]: 46.1%
- viability, T/C [31]: 59.8%
- viability, T/C [32]: 57.2%
- viability, T/C [33]: 60.3%
- viability, T/C [34]: 59.2%
- viability, T/C [35]: 58%
- viability, T/C [36]: 39.8%
